US11186564B2, “Dual NAV1.2/5HT2a inhibitors for treating CNS disorders” (Sunovion Pharmaceuticals Inc., priority 2016, dated 2021)
Read-outs that look alike come from different tables or passages of the source.

What was measured:
[1] = molecular target: human sodium channel NaV1.2 (Homo sapiens, UniProt Q99250); test: NaV1.2 inhibition, automated patch-clamp (Q-Patch HTX), slow inactivated state (state C); type: cell-based; details: for IC50: read-out: NaV1.2 IC50; for inhibition at 1 µM: 1 μM compound, read-out: NaV1.2 (% inh), 1 μM; for inhibition at 10 µM: read-out: NaV1.2 (% inh), 10 μM
Sequence of human sodium channel NaV1.2 (Q99250 whole entry): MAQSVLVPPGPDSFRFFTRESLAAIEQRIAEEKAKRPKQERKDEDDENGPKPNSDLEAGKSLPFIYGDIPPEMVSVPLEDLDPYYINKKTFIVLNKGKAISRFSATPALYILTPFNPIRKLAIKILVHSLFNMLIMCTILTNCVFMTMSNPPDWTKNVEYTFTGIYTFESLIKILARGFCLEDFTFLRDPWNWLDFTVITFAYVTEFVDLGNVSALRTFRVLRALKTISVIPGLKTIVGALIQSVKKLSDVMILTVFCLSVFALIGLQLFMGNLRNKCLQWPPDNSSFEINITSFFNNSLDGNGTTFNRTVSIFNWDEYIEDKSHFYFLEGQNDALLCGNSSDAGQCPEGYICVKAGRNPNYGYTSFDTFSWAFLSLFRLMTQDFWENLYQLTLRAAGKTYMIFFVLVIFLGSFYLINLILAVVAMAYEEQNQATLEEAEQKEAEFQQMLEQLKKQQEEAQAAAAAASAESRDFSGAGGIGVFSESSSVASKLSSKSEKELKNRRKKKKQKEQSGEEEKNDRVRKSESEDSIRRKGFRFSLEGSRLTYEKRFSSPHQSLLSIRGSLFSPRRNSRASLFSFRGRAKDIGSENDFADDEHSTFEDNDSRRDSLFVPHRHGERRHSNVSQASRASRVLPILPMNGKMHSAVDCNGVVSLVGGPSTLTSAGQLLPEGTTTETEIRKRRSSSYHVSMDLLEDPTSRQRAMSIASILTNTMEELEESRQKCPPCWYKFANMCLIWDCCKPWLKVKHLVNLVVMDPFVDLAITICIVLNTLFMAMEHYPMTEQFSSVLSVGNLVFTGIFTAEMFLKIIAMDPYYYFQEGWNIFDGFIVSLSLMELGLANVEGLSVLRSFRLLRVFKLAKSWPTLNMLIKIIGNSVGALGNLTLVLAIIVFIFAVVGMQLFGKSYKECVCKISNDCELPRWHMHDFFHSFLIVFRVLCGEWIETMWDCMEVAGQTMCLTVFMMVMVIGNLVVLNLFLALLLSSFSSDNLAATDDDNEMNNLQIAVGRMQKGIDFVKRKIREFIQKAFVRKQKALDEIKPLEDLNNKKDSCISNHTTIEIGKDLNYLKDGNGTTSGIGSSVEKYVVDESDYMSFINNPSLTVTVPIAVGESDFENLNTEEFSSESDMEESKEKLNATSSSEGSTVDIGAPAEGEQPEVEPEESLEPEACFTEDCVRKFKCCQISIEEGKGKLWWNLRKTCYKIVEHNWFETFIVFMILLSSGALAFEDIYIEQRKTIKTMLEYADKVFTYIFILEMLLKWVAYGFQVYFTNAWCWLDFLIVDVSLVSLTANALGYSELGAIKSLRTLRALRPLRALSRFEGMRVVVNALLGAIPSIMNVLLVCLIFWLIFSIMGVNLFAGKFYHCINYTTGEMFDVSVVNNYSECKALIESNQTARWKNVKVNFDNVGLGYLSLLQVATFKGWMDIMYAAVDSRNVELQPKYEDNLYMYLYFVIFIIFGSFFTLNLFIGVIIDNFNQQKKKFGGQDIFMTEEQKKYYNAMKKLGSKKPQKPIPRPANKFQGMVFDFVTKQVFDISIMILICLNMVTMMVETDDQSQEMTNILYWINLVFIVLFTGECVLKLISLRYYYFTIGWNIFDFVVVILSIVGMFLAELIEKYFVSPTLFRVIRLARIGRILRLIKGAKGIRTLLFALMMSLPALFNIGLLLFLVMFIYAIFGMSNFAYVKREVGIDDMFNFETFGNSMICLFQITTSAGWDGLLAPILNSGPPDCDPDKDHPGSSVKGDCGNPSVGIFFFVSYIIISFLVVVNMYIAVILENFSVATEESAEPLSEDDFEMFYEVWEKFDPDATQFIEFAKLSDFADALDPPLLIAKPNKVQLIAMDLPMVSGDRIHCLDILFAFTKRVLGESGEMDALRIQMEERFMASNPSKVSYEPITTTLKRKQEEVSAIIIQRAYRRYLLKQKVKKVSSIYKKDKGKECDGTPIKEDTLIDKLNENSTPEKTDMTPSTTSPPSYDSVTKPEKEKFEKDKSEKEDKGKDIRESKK
How it was run: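 IC50 comes from a least-squares fit of percent inhibition, relative to vehicle, of current in the slow-inactivated state. That state is reached by a 10 s prepulse to −50 mV, then 15 ms at −90 mV, then a 5 ms test pulse to 0 mV. Human NaV1.2 in stable CHO K-1 cells, held at −100 mV, automated patch clamp.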

[2] = molecular target: T1, recombinant human serotonin receptor 5-HT2A (Homo sapiens, UniProt P28223); test: 5-HT2A antagonist Ca2+ assay in CHO-K1 cells (method A aequorin luminescence / method B FLIPR fluorescence); type: cell-based; details: antagonist mode vs EC80 of reference agonist, method A or B
T1 construct: expressed in transfected cells; method B: loaded with Ca2+ dye
T1 sequence (P28223 whole entry): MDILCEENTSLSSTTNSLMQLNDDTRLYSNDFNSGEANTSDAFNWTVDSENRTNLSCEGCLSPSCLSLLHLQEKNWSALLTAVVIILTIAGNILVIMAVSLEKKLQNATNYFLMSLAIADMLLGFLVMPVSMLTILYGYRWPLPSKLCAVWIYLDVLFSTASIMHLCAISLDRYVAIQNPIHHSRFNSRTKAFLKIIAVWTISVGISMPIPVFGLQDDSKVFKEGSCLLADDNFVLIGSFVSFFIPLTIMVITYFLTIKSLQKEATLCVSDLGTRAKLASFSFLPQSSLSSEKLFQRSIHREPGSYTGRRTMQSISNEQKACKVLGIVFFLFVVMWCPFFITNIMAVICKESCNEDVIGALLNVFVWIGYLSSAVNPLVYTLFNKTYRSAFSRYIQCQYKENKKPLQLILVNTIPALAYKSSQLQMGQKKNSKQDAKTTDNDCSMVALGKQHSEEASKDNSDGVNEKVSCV
How it was run: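 IC50 was obtained by nonlinear regression of percent inhibition of the EC80 agonist Ca2+ response in CHO-K1 cells stably expressing human 5-HT2A. The readout was aequorin luminescence with agonist injected 15 min after compound (A), or Ca2+-dye fluorescence on FLIPR with serotonin as agonist (B).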

[3] = hNaV1.2 CHO cells, slow inactivated state
[4] = 10 μM compound, hNaV1.2 CHO cells, slow inactivated state

| Structure (SMILES) | IC50 [1, 3] [nM] | IC50 ([2]; read-out: 5HT2A IC50) [µM] | inhibition at 1 µM [1, 3] [%] | also measured |
| --- | --- | --- | --- | --- |
| O=C1CCC(c2ccc(F)cc2)=NN1CN1CCN(c2cccc(Cl)c2)CC1 [Example 62, 2-((4-(3-chlorophenyl)piperazin-1-yl)methyl)-6-(4-fluorophenyl)-4,5-dihydropyridazin-3(2H)-one] | 5270 | 0.05 |  |  |
| O=C1Cc2ccccc2N1CCN1CCC(Oc2ccc(F)cc2)CC1 [Example 185, 1-(2-(4-(4-fluorophenoxy)piperidin-1-yl)ethyl)indolin-2-one] |  |  | 19 | IC50 ([2]; 5HT2A IC50, μM): 0.01 µM |
| CO[C@H](CCN1CCC(Oc2ccccc2)CC1)c1ccccc1 [Example 229, (R)-1-(3-methoxy-3-phenylpropyl)-4-phenoxypiperidine] | 1080 | 0.03 |  |  |
| Fc1ccc(OC2CCN(CCC3COCc4ccccc43)CC2)cc1 (stereo not drawn) [Example 184, 4-(4-fluorophenoxy)-1-(2-(isochroman-4-yl)ethyl)piperidine] |  | 0.08 | 35 |  |
| O=C1c2ccc(F)cc2CN1CCN1CCC(Oc2ccc(F)cc2)CC1 [Example 188, 5-fluoro-2-(2-(4-(4-fluorophenoxy)piperidin-1-yl)ethyl)isoindolin-1-one] |  | 0.05 | 32 |  |
| O[C@H](CCN1CCC(Oc2ccccc2)CC1)c1ccccc1 [Example 227, (R)-3-(4-phenoxypiperidin-1-yl)-1-phenylpropan-1-ol] |  | 0.14 |  | inhibition at 10 µM [1, 4]: 53% |
| c1ccc2c(c1)CCC1(CCN(CC3COc4ccccc43)CC1)O2 (stereo not drawn) [Example 409] | 2830 | 0.93 |  |  |
| Fc1ccc(OC2CCN(CCC3COc4cccnc43)CC2)cc1 (stereo not drawn) [Example 177, 3-(2-(4-(4-fluorophenoxy)piperidin-1-yl)ethyl)-2,3-dihydrofuro[3,2-b] pyridine] |  | 0.01 | 34 |  |
| O[C@H](COc1ccccc1)CN1CCC2(CCc3ccccc3O2)CC1 [Example 440, (S)-1-phenoxy-3-(spiro[chromane-2,4′-piperidin]-1′-yl)propan-2-ol] |  | 0.08 | -8 |  |
| OC(COC1CCCCC1)CN1CCN(Cc2ccccc2)CC1 (stereo not drawn) [Example 75, 1-(4-benzylpiperazin-1-yl)-3-(cyclohexyloxy)propan-2-ol] |  | > 4.2 |  | inhibition at 10 µM [1, 4]: 21% |
| CN(C)Cc1ccc2c(c1)C(=O)N(CCN1CCC(Oc3ccc(F)cc3)CC1)CCC2 [Example 211, 8-((dimethylamino)methyl)-2-(2-(4-(4-fluorophenoxy)piperidin-1-yl)ethyl)-2,3,4,5-tetrahydro-1H-benzo[c]azepin-1-one] |  | 0.27 |  | inhibition at 10 µM [1, 4]: 50% |
| O[C@@H](COC1CCCCC1)CN1CCC2(CCc3ccccc3O2)CC1 [Example 438, (R)-1-(cyclohexyloxy)-3-(spiro[chromane-2,4′-piperidin]-1′-yl)propan-2-ol] | 1310 | 0.15 |  |  |
| OC(COC1CCCCC1)CN1CCC2(CCc3ccccc3O2)CC1 (stereo not drawn) [Example 436, 1-(cyclohexyloxy)-3-(spiro[chromane-2,4′-piperidin]-1′-yl)propan-2-ol] | 260 | 0.02 |  |  |
| COc1ccccc1OC1CCC2(CCN(CC3CCc4cccnc43)C2)C1 (stereo not drawn) [Example 373, 2-((6,7-dihydro-5H-cyclopenta[b]pyridin-7-yl)methyl)-7-(2-methoxyphenoxy)-2-azaspiro[4.4]nonane] | 2420 | 0.44 |  |  |
| COc1ccccc1OC1COC2(C1)CN(CC1CCc3ccccc31)C2 (stereo not drawn) [Example 363, 2-((2,3-dihydro-1H-inden-1-yl)methyl)-7-(2-methoxyphenoxy)-5-oxa-2-azaspiro[3.4]octane] |  | 0.62 | 48 |  |
| O[C@H](COC1CCCCC1)CN1[C@@H]2CC[C@H]1CN(c1ccccc1)C2 [Example 287, (S)-1-(cyclohexyloxy)-3-((1R,5S)-3-phenyl-3,8-diazabicyclo[3.2.1]octan-8-yl)propan-2-ol] | 580 |  |  | IC50 ([2]; 5HT2A IC50, μM): 0.03 µM |
| Fc1ccc(OC2CCN(CC3CCc4cccc(F)c43)CC2)cc1 (stereo not drawn) [Example 119, 1-((7-fluoro-2,3-dihydro-1H-inden-1-yl)methyl)-4-(4-fluorophenoxy)piperidine] | 180 | 0.02 |  |  |
| COc1ccc2c(c1)C(CN1CCC(OCc3ccc(F)cc3)CC1)CC2 (stereo not drawn) [Example 247, 4-((4-fluorobenzyl)oxy)-1-((6-methoxy-2,3-dihydro-1H-inden-1-yl)methyl)piperidine] | 270 | 0.1 |  |  |

| Structure (SMILES) | IC50 [1, 3] [nM] | IC50 ([2]; read-out: 5HT2A IC50) [µM] | inhibition at 1 µM [1, 3] [%] | also measured |
| --- | --- | --- | --- | --- |
| c1ccc2c(c1)CCC1(CCN(CCC3Cc4ccncc4C3)CC1)O2 (stereo not drawn) [Example 420, 1′-(2-(6,7-dihydro-5H-cyclopenta[c]pyridin-6-yl)ethyl)spiro[chromane-2,4′-piperidine]] |  | 0.25 | 0 |  |
| c1cnc(OC2CCN(CC3CCc4ccccc43)CC2)nc1 (stereo not drawn) [Example 125, 2-((1-((2,3-dihydro-1H-inden-1-yl)methyl)piperidin-4-yl)oxy) pyrimidine] |  | 0.08 | -3 |  |
| O=C1CC2(CCN(CC3CCc4ccccc43)C2)Oc2ccccc21 (stereo not drawn) [Example 388, 1′-((2,3-dihydro-1H-inden-1-yl)methyl)spiro[chromane-2,3′-pyrrolidin]-4-one] | 1750 | 0.22 |  |  |
| OC(CO[C@@H]1CCc2ccccc21)CN1CC[C@H](Oc2ccc(F)cc2)C1 (stereo partly drawn) [Example 45, 1-(((R)-2,3-dihydro-1H-inden-1-yl)oxy)-3-((S)-3-(4-fluorophenoxy)pyrrolidin-1-yl)propan-2-ol] |  | 0.61 |  | inhibition at 10 µM [1, 4]: 85% |
| Fc1ccc(N2CCC3(CCN(CC4CCc5cccnc54)C3)C2)cc1 (stereo not drawn) [Example 337, 2-((6,7-dihydro-5H-cyclopenta[b]pyridin-7-yl)methyl)-7-(4-fluorophenyl)-2,7-diazaspiro[4.4]nonane] |  | 0.45 | -2 |  |
| Fc1ccc(OC2COC3(C2)CN(CC2CCc4ccccc42)C3)cc1 (stereo not drawn) [Example 368, 2-((2,3-dihydro-1H-inden-1-yl)methyl)-7-(4-fluorophenoxy)-5-oxa-2-azaspiro[3.4]octane] | 380 | 0.15 |  |  |
| c1ccc(N2[C@@H]3CC[C@H]2CN(CC2CCc4ccccc42)C3)cc1 (stereo partly drawn) [Example 295, (1R,5S)-3-((2,3-dihydro-1H-inden-1-yl)methyl)-8-phenyl-3,8-diazabicyclo[3.2.1]octane] |  | > 16.7 | 2 |  |
| COc1ccccc1CN1CCC2(CCN(CC3CCc4ccccc43)C2)C1 (stereo not drawn) [Example 347, 2-((2,3-dihydro-1H-inden-1-yl)methyl)-7-(2-methoxybenzyl)-2,7-diazaspiro[4.4]nonane] | 3190 | 0.03 |  |  |
| c1ccc2c(c1)COC1(CCN(CC3CCc4ccccc43)CC1)C2 (stereo not drawn) [Example 443, l′-((2,3-dihydro-1H-inden-1-yl)methyl)spiro[isochromane-3,4′-piperidine]] | 3370 | 0.22 |  |  |
| CN1Cc2ccccc2C(CCN2CCC(Oc3ccc(F)cc3)CC2)C1 (stereo not drawn) [Example 180, 4-(2-(4-(4-fluorophenoxy)piperidin-1-yl)ethyl)-2-methyl-1,2,3,4-tetrahydroisoquinoline] |  | 0.32 | 8 |  |
| OC(COC1CCCCC1)CN1CCC2(CCc3ccccc32)CC1 (stereo not drawn) [Example 400, 1-(cyclohexyloxy)-3-(2,3-dihydrospiro[indene-1,4′-piperidin]-1′-yl)propan-2-ol] |  |  |  | inhibition at 10 µM ([1]; CHO): 102%; IC50 ([2]; 5HT2A IC50, μM): 2.29 µM |
| O=C1CCC(c2ccc(F)cc2)=NN1CN1CCC(Oc2ccc(F)cc2)CC1 [Example 167, 2-((4-(4-fluorophenoxy)piperidin-1-yl)methyl)-6-(4-fluorophenyl)-4,5-dihydropyridazin-3(2H)-one] |  | 0.09 | 13 |  |
| Fc1ccc(N2CCC3(CCN(CC4Cc5cccnc5C4)C3)C2)cc1 (stereo not drawn) [Example 339, 2-((6,7-dihydro-5H-cyclopenta[b]pyridin-6-yl)methyl)-7-(4-fluorophenyl)-2,7-diazaspiro[4.4]nonane] | 2270 | 0.87 |  |  |
| c1ccc2c(c1)CCC2CN1CCC2(CCc3cnccc3O2)CC1 (stereo not drawn) [Example 404, 1-((2,3-dihydro-1H-inden-1-yl)methyl)-3′,4′-dihydrospiro[piperidine-4,2′-pyrano[3,2-c]pyridine]] |  | 0.11 | 14 |  |
| c1ccc([C@@H]2COC3(CCN(C[C@@H]4CCc5ccccc54)CC3)C2)cc1 (single isomer, unassigned) [Compound 376] | 510 | 0.02 |  |  |
| O=C1c2ccccc2CCN1CCN1C[C@@H]2CC[C@H]1CN2c1ccccc1 [Example 316, 2-(2-((1S,4S)-5-phenyl-2,5-diazabicyclo[2.2.2]octan-2-yl)ethyl)-3,4-dihydroisoquinolin-1(2H)-one] | 80 | 3.17 |  |  |
| COc1cccc(OC2CCN(CCN3CCc4ccccc4C3=O)CC2)c1 [Example 195, 2-(2-(4-(3-methoxyphenoxy)piperidin-1-yl)ethyl)-3,4-dihydroisoquinolin-1(2H)-one] | 1500 | 0.26 |  |  |
| COCc1cccc(OC2CCN(CCN3CCCc4ccccc4C3=O)CC2)c1 [Example 206, 2-(2-(4-(3-(methoxymethyl)phenoxy)piperidin-1-yl)ethyl)-2,3,4,5-tetrahydro-1H-benzo[c]azepin-1-one] |  | > 1.3 |  | inhibition at 10 µM [1, 4]: 46% |
